Results on three substances are retold here after patent US9937250B2, “Immunogenic tumor associated stromal cell antigen peptides and methods of their use” (University of Pittsburgh—Of the Commonwealth System of …, priority 2011, dated 2018).

Where no end group is shown, it is not given here.

One assay concerns MC38 colon carcinoma. The assay is described as follows: MC38 protection (prophylactic vaccination) model. In kind it is in vivo, HHD mice. The arrangement: key to Anti-tumor efficacy in MC38 protection model: +/-, p < 0.05 versus DC only for 2 consecutive time points; - not significant at any time point analyzed. Particulars: for Anti-tumor efficacy in MC38 protection model: DC.IL12 pulsed with a pool of 1 or more peptides derived from the indicated TBVA, vaccination d-14, d-7; for Protection against HLA-A2neg MC38 tumor challenge: immunization days -14 and -7, tumor challenge day 0 (FIG. 9B). From the text:
FIGS. 9A-9B show a series of graphs illustrating induction of specific/protective CD8^+ T cells reactive against TASA as a consequence of DC/peptide-based vaccination. In FIG. 9A, HHD mice (five animals/cohort) were vaccinated twice (d-14, d-7) subcutaneously with PBS or with isologous DC.IL12 pulsed with PBS or synthetic peptides (Table 6) derived from the indicated TASA. In cases where more than 1 peptide was identified for a given target antigen, an equimolar pool of the indicated peptides (each 10 μM) was pulsed onto DC.IL12 and used for vaccination in the relevant cohort. One week after the second immunization, spleens were harvested and splenic CD8^+ T cells isolated using MACS-beads (Miltenyi). T cells were stimulated in vitro for 48 h using the HLA-A2^+ T2 cell line pulsed with relevant TASA vs. irrelevant HIV-nef190-198 ([…]; ref. 24) peptides. Cell-free supernatants were then recovered and IFN-γ levels by ELISA. Data are reported as mean+/−SD for triplicate ELISA determinations, and are representative of 3 independent experiments performed. *p<0.05 vs. HIV-nef control peptide responses. In FIG. 9B, HHD mice were vaccinated twice (days −14 and −7; right flank) subcutaneously with PBS or with isologous DC.IL12 pulsed with PBS or synthetic TASA peptides as indicated in FIG. 1A. In cases where more than 1 peptide is identified for a given target antigen, an equimolar pool of the indicated peptides (each 10 μM) was pulsed onto DC.IL12 and used for vaccination in the relevant cohort. One week after the booster vaccine (i.e. day zero), animals were challenged subcutaneously on their left flank with 2×10^6 MC38 colon carcinoma cells. Tumor growth was then monitored every 3-4 days through day 24. All data represent mean tumor area (in mm^2)+/−SD determined from 5 mice/cohort, and are representative of three independent experiments performed. *p<0.05 versus DC only on the indicated days.
Vaccine Experiments. For prophylactic experiments, HHD mice were immunized subcutaneously on the right flank with 100 μl PBS or PBS containing 10^6 syngenic DC.IL12 cells that had been untreated or pre-pulsed for 4 h at 37° C. with 10 μM synthetic peptide(s). Immunizations occurred on days −14 and −7, with mice subsequently receiving injections of MC38 (2×10^6) tumor cells in the left flank on d0. In all cases, treatment groups contained 5 mice per cohort. For analysis of tumor cellular composition in repeat experiments, MC38 tumors were isolated by surgical resection 10 days after tumor inoculation and prepared for fluorescence imaging, as described below. […] Mice were then untreated or treated with control, syngenic DC.IL12 or DC.IL12 (10^6 cells injected subcutaneously in the left flank on days 7 and 14) pulsed with synthetic TBVA peptides. In some assays, as indicated, in vivo antibody depletions (on days 6, 13 and 20 post-tumor inoculation to assess early involvement or on days 60 and 67 or 180 and 187 to assess late involvement) of protective CD4^+ T cells or CD8^+ T cells were performed and monitored as previously described (Zhao et al., Mol Ther., 19:805-814, 2011). In all cases, tumor size (area) was monitored every 3-4 days and is reported as mean+/−SD in mm^2.
The DLK1, EphA2, HBB, NG2, NRP1, NRP2, PDGFRβ, PSMA, RGS5, TEM1, VEGFR1 and VEGFR2 antigens were expressed in situ by blood vessel cells in the MC38 colon carcinoma TME (FIG. 14). Protection of HHD mice against a challenge with HLA-A2^neg MC38 tumor cells injected subcutaneously on day zero was assayed with immunization with TBVA-derived peptides on days −14 and −7. […]

The test system of assay [1] is CD8+ T cells from HLA-A2+ normal donors or HLA-A2+ melanoma patients. Put plainly: In vitro sensitization of human CD8+ T cells with TASA peptide-pulsed autologous DC, IFN-γ ELISA against peptide-pulsed T2 cells. The assay is classed as cell-based. On the procedure: The indicated peptides were pulsed onto autologous DC and used to prime and boost CD8^+ T cells isolated from the peripheral blood of eight normal HLA-A2^+ donors or ten HLA-A2^+ patients with melanoma. Seven days after the primary in vitro sensitization (IVS) (melanoma patients) or a secondary IVS boost (normal donors), T cells were analyzed for their reactivity against HLA-A2^+ T2 cells pulsed with the relevant peptide vs. the negative control HIV-nef190-198 peptide. After 24 hours of co-culture, cell-free supernatants were analyzed for levels of secreted IFN-γ using a commercial ELISA. Data are reported in Bar and Whisker plots, with p-values provided for paired pre- versus post-IVS data from normal donors and patients. In addition, p<0.05 was detected for MEL-Post versus ND-Post for the following peptides: DLK1 (309), NG2 (770), NG2 (2238), PDGFRβ (891) and RGS5 (5).
In vitro assessment of human CD8^+ T cell responses against TASA- or TAA-derived peptides. Peripheral blood mononuclear cells (PBMC) were obtained by venipuncture or leukapheresis from HLA-A2^+ normal donors or HLA-A2^+ melanoma patients with written consent under IRB-approved protocols (Table 3). CD8^+ T cells were then isolated by MACS (Miltenyi Biotec, Auburn, Calif.) and either not stimulated or stimulated with autologous, TASA peptide-pulsed DC as previously described (Tatsumi et al., Cancer Res., 63:4481-4489, 2003). Normal donor T cells were stimulated with TASA peptide-pulsed DC twice on a weekly schedule, with responder T cells harvested for analysis of their specificity 5 days after the booster stimulation (i.e. day 12 of T cell-DC co-culture). Melanoma patient CD8^+ T cells were analyzed after a single round of stimulation with TASA peptide-pulsed, autologous DC (i.e. day 5 of T cell-DC co-culture) as indicated. For DC-based stimulations, DC were pulsed with an equimolar (1 μM each) pool of the TASA peptides (Table 4) for 4 h at 37° C. at 5% CO2 tension. These antigen-loaded DC were then used to stimulate autologous CD8^+ T cells at a T cell-to-DC ratio of 10:1 to generate a bulk population of responder T cells. T cells were maintained in IMDM media supplemented with 10% human AB serum, 100 U/ml penicillin, […], 10 mM L-glutamine and MEM non-essential amino acids (all reagents from Invitrogen, except human AB serum that was purchased from Sigma-Aldrich, St. Louis, Mo.). Responder CD8^+ T cells were analyzed for reactivity against control (HLA-A2^+) T2 cells or T2 cells pulsed with individual TASA or TAA peptides (1 μM for 4 h at 37° C.) at a CD8^+ T cell-to-T2 cell ratio of 5:1 for 24 h. Harvested cell-free supernatants were consequently assessed for hIFN-γ content using a specific ELISA (BD Biosciences, San Diego, Calif.) with a lower detection limit of 4.7 pg/ml.
CD8^+ T cells from HLA-A2^+ normal donors or HLA-A2^+ melanoma patients recognize TASA-derived peptides in vitro. To assess whether the TASA-derived peptides identified in the HHD tumor model were also capable of being recognized by human CD8^+ T cells, IVS was performed using T cells isolated from the peripheral blood of HLA-A2^+ donors or HLA-A2^+ patients with melanoma. DC were pulsed with peptides derived from a given TASA for 4 h at 37° C., then washed and used as stimulator cells for autologous CD8^+ T cells. In cases where more than one peptide existed for a given protein, DC were pulsed with an equimolar (10 μM) mixture of each peptide. Two rounds of IVS using TASA for normal donors and a single-round of IVS using TASA for melanoma patients was applied. HLA-A2^+ normal donors (FIG. 4; Tables 4, 5A and 5B) and melanoma patients (FIG. 4; Tables 4, 5A and 5B) were each capable of recognizing many of the TASA-derived peptides.
A general note: In an ELISA, binding on a coated surface is turned into a signal by an enzyme label.

On to “NRP2: equimolar pool of the three NRP2-derived peptides (214-222, 328-336, 436-444), pulsed onto DC or DC.IL12 (chain 1 DIWDGIPHV; chain 2 YLQVDLRFL; chain 3 NMLGMLSGL; also: equimolar pool of three peptides; listed as Homo sapiens)”, for which, in the assay with MC38 colon carcinoma, the “Anti-tumor efficacy in MC38 protection model” value is “-”. For the same substance, the “Protection against HLA-A2neg MC38 tumor challenge” value in the assay on MC38 colon carcinoma was “minimal protection”. Also, the “Specific CD8+ T cell Production of IFN-γ in Response to TASA” value (“Specific CD8+ T cell Production of IFN-γ” for short) was “+ (Human responses were designated as + if T cell reactivity against T2 cells presenting the indicated peptide (IFN-γ ELISA) was >30 pg/ml and more than 2 fold higher than reactivity versus T2 cells pulsed with the negative control HIV-nef190-198 peptide)” in assay [1] (donor Mel1, melanoma patient); “+ (Human responses were designated as + if T cell reactivity against T2 cells presenting the indicated peptide (IFN-γ ELISA) was >30 pg/ml and more than 2 fold higher than reactivity versus T2 cells pulsed with the negative control HIV-nef190-198 peptide)” in assay [1] (donor Mel2, melanoma patient); “+ (Human responses were designated as + if T cell reactivity against T2 cells presenting the indicated peptide (IFN-γ ELISA) was >30 pg/ml and more than 2 fold higher than reactivity versus T2 cells pulsed with the negative control HIV-nef190-198 peptide)” in assay [1] (donor Mel4, melanoma patient); “+ (Human responses were designated as + if T cell reactivity against T2 cells presenting the indicated peptide (IFN-γ ELISA) was >30 pg/ml and more than 2 fold higher than reactivity versus T2 cells pulsed with the negative control HIV-nef190-198 peptide)” in assay [1] (donor Mel5, melanoma patient).
“PDGFRβ: PDGFRβ-derived peptide 890-898 pulsed onto DC or DC.IL12 (ILLWEIFTL; listed as Homo sapiens)”: in the assay on MC38 colon carcinoma, the “Protection against HLA-A2neg MC38 tumor challenge” value is given as “effective in preventing HLA-A2^neg MC38 tumor establishment or they resulted in the regression of tumors”. For the same substance, the “Specific CD8+ T cell Production of IFN-γ” value is “+ (Human responses were designated as + if T cell reactivity against T2 cells presenting the indicated peptide (IFN-γ ELISA) was >30 pg/ml and more than 2 fold higher than reactivity versus T2 cells pulsed with the negative control HIV-nef190-198 peptide)” in assay [1] (donor Mel8, melanoma patient); “+ (Human responses were designated as + if T cell reactivity against T2 cells presenting the indicated peptide (IFN-γ ELISA) was >30 pg/ml and more than 2 fold higher than reactivity versus T2 cells pulsed with the negative control HIV-nef190-198 peptide)” in assay [1] (donor ND2, normal donor); “+ (Human responses were designated as + if T cell reactivity against T2 cells presenting the indicated peptide (IFN-γ ELISA) was >30 pg/ml and more than 2 fold higher than reactivity versus T2 cells pulsed with the negative control HIV-nef190-198 peptide)” in assay [1] (donor ND4, normal donor).
Turning to “PSMA: PSMA-derived peptide 441-450 pulsed onto DC or DC.IL12 (LLQERGVAYI; listed as Homo sapiens)”, in the assay with MC38 colon carcinoma, the “Anti-tumor efficacy in MC38 protection model” value is listed as “-” and the “Protection against HLA-A2neg MC38 tumor challenge” value is listed as “minimal protection”. Besides, the “Specific CD8+ T cell Production of IFN-γ” value in assay [1] (donor Mel4, melanoma patient) is “+ (Human responses were designated as + if T cell reactivity against T2 cells presenting the indicated peptide (IFN-γ ELISA) was >30 pg/ml and more than 2 fold higher than reactivity versus T2 cells pulsed with the negative control HIV-nef190-198 peptide)”. The “Specific CD8+ T cell Production of IFN-γ” value in assay [1] (donor Mel6, melanoma patient) was “+ (Human responses were designated as + if T cell reactivity against T2 cells presenting the indicated peptide (IFN-γ ELISA) was >30 pg/ml and more than 2 fold higher than reactivity versus T2 cells pulsed with the negative control HIV-nef190-198 peptide)”.
